# Key:
# [1] = molecular target: T1, RNA-directed RNA polymerase (Hepacivirus hominis, UniProt O39930); assay: Inhibitory activity against HCV 1a NS5B RNA dependent RNA polymerase
# [2] = tested on: Huh-5-2; assay: Cytotoxicity against Huh5-2 cells by MTT assay; assay type: functional; conditions: Homo sapiens
# [3] = molecular target: DNA polymerase beta (Homo sapiens, UniProt P06746); assay: Inhibitory activity against DNA polymerase beta
# [4] = molecular target: T2, DNA polymerase alpha catalytic subunit (Homo sapiens, UniProt P09884); assay: Inhibitory activity against DNA polymerase alpha
# T2 sequence (P09884 whole entry): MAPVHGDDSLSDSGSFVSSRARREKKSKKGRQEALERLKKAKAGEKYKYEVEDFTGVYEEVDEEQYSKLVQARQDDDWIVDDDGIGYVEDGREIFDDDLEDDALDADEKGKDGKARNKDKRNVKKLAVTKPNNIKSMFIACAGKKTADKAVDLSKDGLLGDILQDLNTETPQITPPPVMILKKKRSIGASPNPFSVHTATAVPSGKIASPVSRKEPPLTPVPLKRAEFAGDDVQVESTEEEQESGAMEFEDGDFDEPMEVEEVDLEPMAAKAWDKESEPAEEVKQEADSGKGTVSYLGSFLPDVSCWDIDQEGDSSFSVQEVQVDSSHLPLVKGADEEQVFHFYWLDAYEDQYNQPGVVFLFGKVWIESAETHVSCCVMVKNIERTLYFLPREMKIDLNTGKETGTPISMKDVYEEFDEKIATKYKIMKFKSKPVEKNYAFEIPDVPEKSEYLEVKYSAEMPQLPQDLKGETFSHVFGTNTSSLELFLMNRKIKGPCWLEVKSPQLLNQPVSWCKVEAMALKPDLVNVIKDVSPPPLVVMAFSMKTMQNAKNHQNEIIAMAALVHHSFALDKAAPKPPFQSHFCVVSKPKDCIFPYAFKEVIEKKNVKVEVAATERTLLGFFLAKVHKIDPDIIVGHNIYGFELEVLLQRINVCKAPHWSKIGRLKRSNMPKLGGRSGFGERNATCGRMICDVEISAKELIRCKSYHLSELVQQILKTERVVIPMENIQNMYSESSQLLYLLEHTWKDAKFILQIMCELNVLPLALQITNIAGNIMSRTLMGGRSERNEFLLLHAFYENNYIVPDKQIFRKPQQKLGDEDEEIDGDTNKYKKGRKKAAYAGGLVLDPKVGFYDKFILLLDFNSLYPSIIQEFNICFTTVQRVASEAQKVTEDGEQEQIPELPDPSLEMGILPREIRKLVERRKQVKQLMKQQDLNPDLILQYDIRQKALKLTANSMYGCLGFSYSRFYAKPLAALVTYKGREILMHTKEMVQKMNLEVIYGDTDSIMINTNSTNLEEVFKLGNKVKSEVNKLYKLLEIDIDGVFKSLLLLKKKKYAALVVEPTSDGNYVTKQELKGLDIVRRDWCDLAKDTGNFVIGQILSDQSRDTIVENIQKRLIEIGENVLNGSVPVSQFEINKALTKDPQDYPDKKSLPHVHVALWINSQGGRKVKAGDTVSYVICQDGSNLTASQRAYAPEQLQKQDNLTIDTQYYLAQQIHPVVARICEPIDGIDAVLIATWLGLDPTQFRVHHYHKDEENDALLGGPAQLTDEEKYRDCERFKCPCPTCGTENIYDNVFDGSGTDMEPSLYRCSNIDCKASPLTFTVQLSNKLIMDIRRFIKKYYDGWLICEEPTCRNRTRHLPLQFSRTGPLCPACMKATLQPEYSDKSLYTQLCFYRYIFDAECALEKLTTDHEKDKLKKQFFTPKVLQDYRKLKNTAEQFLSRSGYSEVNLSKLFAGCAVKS
# [5] = molecular target: T1, RNA-directed RNA polymerase; assay: Inhibitory activity against HCV 1b NS5B RNA dependent RNA polymerase; design: species or system Hepatitis C virus subtype 1b
# [6] = molecular target: RNA-directed RNA polymerase (Hepacivirus hominis) (UniProt O39930); assay: Inhibitory activity against HCV 1b NS5B RNA dependent RNA polymerase at 10 uM; conditions: Hepatitis C virus subtype 1b
# Chain of RNA-directed RNA polymerase (Hepacivirus hominis) (O39930 1-591): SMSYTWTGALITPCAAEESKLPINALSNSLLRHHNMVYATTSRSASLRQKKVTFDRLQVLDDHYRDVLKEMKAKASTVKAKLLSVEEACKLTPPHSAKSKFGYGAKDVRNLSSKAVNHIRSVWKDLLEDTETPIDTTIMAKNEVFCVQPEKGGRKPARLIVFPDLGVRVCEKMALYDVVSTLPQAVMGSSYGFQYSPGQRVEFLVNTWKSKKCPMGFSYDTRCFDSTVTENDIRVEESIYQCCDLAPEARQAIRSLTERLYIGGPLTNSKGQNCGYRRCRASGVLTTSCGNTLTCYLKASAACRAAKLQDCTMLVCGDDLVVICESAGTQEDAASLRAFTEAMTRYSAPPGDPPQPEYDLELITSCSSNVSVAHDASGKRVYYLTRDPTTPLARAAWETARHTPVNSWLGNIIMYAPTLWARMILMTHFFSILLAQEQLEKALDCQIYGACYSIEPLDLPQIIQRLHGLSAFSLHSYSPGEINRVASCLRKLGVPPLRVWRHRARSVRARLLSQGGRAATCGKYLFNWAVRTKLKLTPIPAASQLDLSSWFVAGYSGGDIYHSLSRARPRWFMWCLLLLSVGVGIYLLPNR
# T1 sequence (O39930 whole entry): as the sequence (O39930 1-591) above
SMILES,IC50 [1] [µM],IC50 [3] [µM],IC50 [4] [µM],IC50 [5] [µM],inhibition [6] [%],CC50 [2] [µM]
O=C(O)c1ccc2c(c1)nc(-c1ccc(OCCCc3ccccc3)cc1)n2C1CCCCC1,,,,0.8,,
COc1ccc(COc2ccc(-c3nc4cc(C(=O)O)ccc4n3C3CCCC3)cc2)cc1,,,,2.1,,
O=C(O)c1ccc2c(c1)nc(-c1ccc(OCCOc3ccccc3)cc1)n2C1CCCCC1,,,,1.2,,
O=C(O)c1ccc2c(c1)nc(-c1ccc(OC(c3cccnc3)c3cccnc3)cc1F)n2C1CCCCC1,2.2,> 10,> 10,1.1,,> 50
O=C(O)c1ccc2c(c1)nc(-c1ccc(OCc3ccccc3Cl)cc1)n2C1CCCC1,,,,2.3,,
O=C(O)c1ccc2c(c1)nc(-c1ccc(OCc3ccc(C(F)(F)F)cc3)cc1)n2C1CCCC1,,,,1.8,,
O=C(O)c1ccc2c(c1)nc(-c1ccc(OCc3ccccc3)cc1)n2C1CCCCCC1,,,,1.8,,
O=C(O)c1ccc2c(c1)nc(-c1ccc(OCCCCCc3ccccc3)cc1)n2C1CCCCC1,,,,1,,
O=C(O)c1ccc2c(c1)nc(-c1ccc(OCC(c3ccccc3)c3ccccc3)cc1)n2C1CCCCC1,,,,0.98,,
O=C(O)c1ccc2c(c1)nc(-c1ccc(OCc3ccccc3)cc1)n2C1CCCCC1,,,,1.4,,
O=C(O)c1ccc2c(c1)nc(-c1ccc(OC(c3ccc(F)cc3)c3ccc(F)cc3)cc1)n2C1CCCCC1,1.7,> 10,> 10,0.8,,27.7
Cc1ccc(C(Oc2ccc(-c3nc4cc(C(=O)O)ccc4n3C3CCCCC3)cc2)c2ccc(C)cc2)cc1,3.1,> 10,> 10,1.2,,23.5
O=C(O)c1ccc2c(c1)nc(-c1ccc(OCc3cccc(Cl)c3)cc1)n2C1CCCC1,,,,1.6,,
NC(=O)c1ccc2c(c1)nc(-c1ccc(OCc3ccccc3)cc1)n2C1CCCC1,,,,,47,
O=C(O)c1ccc(COc2ccc(-c3nc4cc(C(=O)O)ccc4n3C3CCCC3)cc2)cc1,,,,6.7,,
O=C(O)c1ccc2c(c1)nc(-c1ccc(OCc3cc(Cl)cc(Cl)c3)cc1)n2C1CCCC1,,,,1.7,,
O=C(O)c1ccc2c(c1)nc(-c1ccc(OCc3ccccc3)cc1)n2C1CCCC1,,,,3.2,,
O=C(O)c1ccc2c(c1)nc(-c1ccc(OCc3ccncc3)cc1)n2C1CCCC1,,,,4.2,,
CC(C)(C)c1ccc(COc2ccc(-c3nc4cc(C(=O)O)ccc4n3C3CCCC3)cc2)cc1,,,,1.5,,
Cc1ccc(COc2ccc(-c3nc4cc(C(=O)O)ccc4n3C3CCCC3)cc2)cc1,,,,1.6,,
O=C(O)c1ccc2c(c1)nc(-c1ccc(OCc3ccc(Cl)cc3)cc1)n2C1CCCC1,,,,1.2,,
O=C(O)c1ccc2c(c1)nc(-c1ccc(OC(c3ccc(Cl)cc3)c3ccc(Cl)cc3)cc1)n2C1CCCCC1,2.4,> 10,> 10,0.93,,23.7
O=C(O)c1ccc2c(c1)nc(-c1ccc(OCc3ccc(Cl)c(Cl)c3)cc1)n2C1CCCC1,,,,1.3,,

# Continued by falling IC50 [5], values first:
IC50 [1] [µM],IC50 [3] [µM],IC50 [4] [µM],IC50 [5] [µM],inhibition [6] [%],SMILES,CC50 [2] [µM]
1.9,> 10,> 10,0.76,,O=C(O)c1ccc2c(c1)nc(-c1ccc(OC(c3cccc(F)c3)c3cccc(F)c3)cc1)n2C1CCCCC1,24.4
0.95,> 10,> 10,0.64,,CN(C)C(=O)c1ccc(C(Oc2ccc(-c3nc4cc(C(=O)O)ccc4n3C3CCCCC3)c(F)c2)c2ccc(C(=O)N(C)C)cc2)cc1,> 50
1.3,> 10,> 10,0.59,,O=C(O)c1ccc2c(c1)nc(-c1ccc(OC(c3ccccc3)c3ccccc3)cc1)n2C1CCCCC1,31.9
,,,0.58,,O=C(O)c1ccc2c(c1)nc(-c1ccc(Oc3ccccc3-c3ccccc3)cc1)n2C1CCCCC1,
,,,0.39,,O=C(O)c1ccc2c(c1)nc(-c1ccc(OCc3cccc(-c4ccccc4)c3)cc1)n2C1CCCCC1,
,,,0.34,,O=C(O)c1ccc2c(c1)nc(-c1ccc(OCCc3ccccc3-c3ccccc3)cc1)n2C1CCCCC1,
0.84,> 10,> 10,0.3,,O=C(O)c1ccc2c(c1)nc(-c1ccc(OC(c3ccc(F)cc3)c3ccc(F)cc3)cc1F)n2C1CCCCC1,27.2
,,,0.3,,O=C(O)c1ccc2c(c1)nc(-c1ccc(OCc3ccccc3-c3ccccc3)cc1)n2C1CCCCC1,
0.8,> 10,> 10,0.27,,O=C(O)c1ccc2c(c1)nc(-c1ccc(OC(c3ccccc3)c3cccnc3)cc1F)n2C1CCCCC1 (stereo not drawn),> 50
0.8,> 10,> 10,0.096,,O=C(O)c1ccc2c(c1)nc(-c1ccc(OC(c3ccccc3)c3ccccc3)cc1F)n2C1CCCCC1,27.3
